Assay results taken from PMC7139703, “Thiopurine Derivative-Induced Fpg/Nei DNA Glycosylase Inhibition: Structural, Dynamic and Functional Insights” (International Journal of Molecular Sciences, 2020).
Read-outs that look alike come from different tables or passages of the source.

Assays:
[1] = biological target: hNeil1 (Homo sapiens, UniProt Q96FI4); test: hNeil1 DNA glycosylase/AP lyase activity assay on DHU:G 24-mer duplex; assay type: biochemical; set-up: Overproduction was performed as described above for full length hNeil1; 6His (C); made in house; host or cells: E. coli Rosetta2 (DE3); conditions: for effect on hNeil1 catalytic activity: 0.2 mM compound
hNeil1, sequence (Q96FI4 whole entry): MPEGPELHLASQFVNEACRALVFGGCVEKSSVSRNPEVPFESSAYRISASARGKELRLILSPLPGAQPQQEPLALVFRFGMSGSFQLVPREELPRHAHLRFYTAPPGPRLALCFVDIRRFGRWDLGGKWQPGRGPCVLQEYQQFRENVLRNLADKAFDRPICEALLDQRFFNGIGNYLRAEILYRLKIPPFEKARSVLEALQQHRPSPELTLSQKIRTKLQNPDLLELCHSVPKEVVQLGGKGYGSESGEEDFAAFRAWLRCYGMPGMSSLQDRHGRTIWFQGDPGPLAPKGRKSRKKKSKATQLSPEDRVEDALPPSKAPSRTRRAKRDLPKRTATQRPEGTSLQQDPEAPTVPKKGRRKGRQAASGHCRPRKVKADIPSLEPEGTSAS
Method: Figure 4 Comparative analysis of the effect of 2TX and TXn on Fpg/Nei DNA glycosylases. Enzyme activities were measured as described in the Figure 1 legend using […] of a 5′-[^32P]-24-mer DNA duplex containing either an 8-oxoG opposite C for LlFpg or a […] (DHU) opposite G for hNeil1 and mvNei1. The DNA probe was incubated with the indicated protein concentration and 0.2 mM TXn compounds in the presence or absence of 1 mM dithiothreitol (DTT) and TCEP (a representative experiment is illustrated by the upper histograms). The DNA probe for EMSA was 0.1 nM of 5′-[^32P]-[…] DNA duplex containing THF with LlFpg and mvNei1 (bottom panels: gel autoradiography) with the indicated conditions and as described in ‘Materials and Methods’.
(§1) Fpg, hNeil1 and mvNei1 are bifunctional DNA glycosylases associated with concerted DNA glycosylase activity (cleavage of the N-glycosidic bond between the base lesion and the C1′ of the deoxyribose) and AP lyase activity that comprises the successive cleavage of the phosphodiester bonds at the 3′ and 5′ of the resulting abasic (AP) site, respectively (β, δ-elimination). Thus, AP sites that result from the excision of the damaged base are quantitatively converted into one nucleoside gap by these enzymes. The DNA glycosylase/AP lyase activity of each enzyme was measured by incubating 20 nM of 24-mer DNA duplexes ([OG:C] and [DHU:G] for Fpg and hNeil1/mvNei1, respectively) 5′-labeling on the damaged strand (see above) with 2 nM of Fpg, or mvNei1 for 15 min or, with 20 nM of hNeil1 for 30 min at 37 °C in 10 mM Tris-HCl, pH 7.6, 150 mM NaCl, 1 mM EDTA, 0.1 mg/mL BSA and 8% DMSO. The reaction was stopped by the addition of 1 volume of formamide loading buffer (96% formamide, 20 mM Tris/HCl pH 8.0 and 2 mM Na2EDTA), heated at 80 °C for 2 min and then analyzed by 20% Urea-PAGE, as previously described. […] Under these conditions, only 50% of the substrate is converted to the cleavage product (limiting enzyme concentration conditions). For an initial evaluation of the inhibitory effect, 40 µM of 2TX/TXn was used. The thio-compound was added to the reaction mixture before the final addition of the enzyme (competition condition). For the best identified inhibitors, a dose-response curve was generated and IC50^A determined (Figure 1 and Table 1).

[2] = biological target: T1, LlFpg (Lactococcus lactis subsp. cremoris, UniProt P42371); test: LlFpg 8-oxoG-DNA glycosylase/AP lyase activity assay (Urea-PAGE radioassay); assay type: biochemical; conditions: for IC50: catalytic activity at 37 °C, compound stock (redox mixture) in DMSO, 20 nM 8-oxoG:C 24-mer, 2 nM LlFpg
T1 construct: made in house; host or cells: E. coli BH540 (fpg defective)
T1 sequence (P42371 2-273): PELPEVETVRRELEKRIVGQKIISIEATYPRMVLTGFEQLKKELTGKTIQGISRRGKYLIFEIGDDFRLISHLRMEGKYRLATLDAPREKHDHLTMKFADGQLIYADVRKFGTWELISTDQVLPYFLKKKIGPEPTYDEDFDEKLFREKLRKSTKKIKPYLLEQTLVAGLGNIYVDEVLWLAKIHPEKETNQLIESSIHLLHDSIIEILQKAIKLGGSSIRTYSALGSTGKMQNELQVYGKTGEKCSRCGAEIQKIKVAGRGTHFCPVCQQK
Method: Figure 1 Effect of 2-thioxanthine (2TX)-derivatives on Fpg activity. A total of 20 nM of 5′-[^32P]-8-oxoG-containing 24-bp DNA duplex (labeled on the damaged strand) was incubated with 2 nM of LlFpg alone (dimethyl sulfoxide (DMSO) control) or with the indicated 2TX and 2TX-derivatives (TXn) concentrations, as described in the “Materials and Methods” section. (a) Screening of TXn for Fpg inhibition. Averages and standard deviations were obtained from at least three independent experiments. Mono- and di-thiolated compounds are highlighted in red and blue, respectively. (b) Dose-response curves for best inhibitors. Each data point represents the mean value obtained from at least three independent measurements.
as §1

[3] = biological target: T1, LlFpg; test: Enzyme kinetics of 8-oxoG excision by LlFpg in the presence of 2TX (double-reciprocal, Dixon, Cornish-Bowden plots); assay type: biochemical
Text: Kinetic experiments with LlFpg in the presence of 2TX partially support this last hypothesis (Figure S3). Although LlFpg was inhibited by 2TX, as was its E. coli homolog (EcFpg), the raw kinetic data from all the experiments appeared to be very complicated and difficult to interpret. […] In this case, no inhibitory constant (Ki) can be determined. This mechanism (also supported by the inhibition suppression by TCEP, Figure S2) is likely superimposed on other inhibitory mechanisms, a factor that makes it difficult to analyze kinetic data. To clarify, we separately analyzed kinetic data obtained for low and high 2TX concentrations (Figure S3). As expected, we observed a linear dependence of the reciprocal velocity (1/v) as a function of the reciprocal substrate concentrations (1/S) with and without the inhibitor. […] These values compare well with those determined previously for the excision of FapyG and 8-oxoG by EcFpg. […] This value is consistent with an interaction of 2TX in the active site of the enzyme. This inhibitory mechanism has not been previously described for the EcFpg enzyme. […] This mode of inhibition is in agreement with the possibility that 2TX can bind outside the active site on the free and bound enzyme. […]

[4] = biological target: T2, LlFpg/DNA complex C1 (Lactococcus lactis subsp. cremoris, UniProt P42371); test: EMSA, Fpg DNA binding to 14-mer [THF:C] duplex, complex C1 (lesion recognition complex, Fpg/DNA 1/1); conditions: pre-incubation of Fpg 20 min at 4 °C; micromolar to millimolar inhibitor
T2 construct: made in house; host or cells: E. coli BH540 (fpg defective)
T2 sequence (P42371 2-273, one chain of several): as the sequence (P42371 2-273) above

[5] = catalytic activity at 37 °C, compound stock in DMSO, DHU:G 24-mer, read-out: IC50app^A (Fpg/Nei enzyme catalysis) hNEIL1
[6] = read-out: IC50app^A (Fpg/Nei enzyme catalysis) LlFpg
[7] = IC50app^A (Fpg/Nei enzyme catalysis) LlFpg

Structure (SMILES)	effect on hNeil1 catalytic activity ([1]; Figure 4)	IC50 [1, 5] [µM]	IC50 [2, 6] [µM]	IC50 [2, 7] [µM]	also measured
O=c1[nH]c(=S)[nH]c2[nH]c(=S)[nH]c12 [TX19]	apparent inhibitory effects	19 ± 1	15 ± 1	–	inhibition of hNeil1 DNA binding and catalytic activities in the presence of TCEP ([1]; 1 mM TCEP (DTT to a lesser extent), Figure 4): suppressed
FC(F)(F)c1nc(S)c2nc[nH]c2n1 [TX13, 2-trifluoromethyl-6-thiopurine]	–	–	7.5 ± 1	–	IC50 [1]: > 250 µM; effectiveness on Fpg relative to 2TX ([2]; from IC50app^A): seven times more effective than 2TX
Nc1ncnc2[nH]c(S)nc12 [TX27]	–	160 ± 16	–	20 ± 2	–
O=c1[nH]c(=S)[nH]c2nc[nH]c12 [Compound 2TX, 2-thioxanthine, reference compound]	did not significantly affect	> 500	48 ± 4	–	Ki ([3]; high 2TX concentrations, uncompetitive, read-out: apparent Ki (Kiu)): 24.9 ± 6.56 µM; Ki ([3]; low 2TX concentrations, partially competitive, read-out: apparent Ki (Kic)): 2.19 ± 0.56 µM; Fpg ability to bind DNA after pre-incubation with inhibitor [4]: completely abolished
O=c1[nH]c2[nH]c(=S)[nH]c(=O)c2[nH]1 [TX14, 2-thio-6,8-dioxopurine]	–	> 500	–	28 ± 7	–
